Assay results taken from ChEMBL document CHEMBL1201862, “PubChem BioAssay data set” (2004).
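Dose response: 5 concentrations. Exposure: 48 h. Format: 96-well plates. Endpoint: linear interpolation; highest concentration if not reached. Here, GI50 denotes the concentration required for 50% inhibition of growth.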 The source made the active and inactive calls. Cut-off read from the data, not from the text of the source: active = GI50 up to about 1.1 µM and inactive = higher.

Assays:
Assay in all cases: growth of human tumour cells (NCI), 48 h
NCI/ADR-RES = system: NCI/ADR-RES
786-0 = system: 786-0
DU-145 = system: DU-145
SW-620 = system: SW-620
HOP-62 = system: HOP-62
HCT-15 = system: HCT-15
RXF 393 = system: RXF 393
SK-MEL-28 = system: SK-MEL-28
SF-295 = system: SF-295
OVCAR-4 = system: OVCAR-4
U-251 = system: U-251
SF-268 = system: SF-268
CCRF-CEM = system: CCRF-CEM
SR = system: SR
NCI-H522 = system: NCI-H522
TK-10 = system: TK-10
SNB-75 = system: SNB-75
T47D = system: T47D
PC-3 = system: PC-3
MDA-MB-231 = system: MDA-MB-231
MDA-MB-435 = system: MDA-MB-435
K562 = system: K562
BT-549 = system: BT-549
HCT-116 = system: HCT-116
UACC-62 = system: UACC-62
OVCAR-3 = system: OVCAR-3
COLO 205 = system: COLO 205
SNB-19 = system: SNB-19
A549 = system: A549
A498 = system: A498
SK-OV-3 = system: SK-OV-3
UACC-257 = system: UACC-257
HOP-92 = system: HOP-92
HT-29 = system: HT-29
NCI-H226 = system: NCI-H226
MOLT-4 = system: MOLT-4
LOX IMVI = system: LOX IMVI
SF-539 = system: SF-539
NCI-H460 = system: NCI-H460
HCC 2998 = system: HCC 2998
OVCAR-8 = system: OVCAR-8
CAKI-1 = system: CAKI-1
IGROV-1 = system: IGROV-1
NCI-H23 = system: NCI-H23
RPMI-8226 = system: RPMI-8226
EKVX = system: EKVX
UO-31 = system: UO-31
Malme-3M = system: Malme-3M
MCF7 = system: MCF7
M14 = system: M14
MDA-N = system: MDA-N
SN12C = system: SN12C
SK-MEL-5 = system: SK-MEL-5
KM12 = system: KM12
OVCAR-5 = system: OVCAR-5
ACHN = system: ACHN

**Q.** `O=C(CSc1nnc(SCC(=O)NN=C2CCCCC2)s1)NN=C1CCCCC1` was tested. Which GI50 (NCI/ADR-RES) did it give?
**A.** The GI50 was > 100 µM (inactive).

**Q.** And the GI50 (786-0)?
**A.** The GI50 was > 100 µM (inactive).

**Q.** What about the GI50 (DU-145) of the same molecule?
**A.** Its GI50 is > 100 µM (inactive).

**Q.** What about the GI50 (SW-620) of the same molecule?
**A.** The GI50 was > 100 µM (inactive).

**Q.** What about the GI50 (HOP-62) of the same molecule?
**A.** Its GI50 is > 100 µM (inactive).

**Q.** What about the GI50 (HCT-15) of the same molecule?
**A.** Its GI50 is greater than 100 µM.

**Q.** And the GI50 (RXF 393)?
**A.** The GI50 was > 100 µM (inactive).

**Q.** And the GI50 (SK-MEL-28)?
**A.** Its GI50 is > 100 µM (inactive).

**Q.** What about the GI50 (SF-295) of the same molecule?
**A.** The GI50 was > 100 µM (inactive).

**Q.** And the GI50 (OVCAR-4)?
**A.** The GI50 was > 100 µM (inactive).

**Q.** What about the GI50 (U-251) of the same molecule?
**A.** Its GI50 is > 100 µM (inactive).

**Q.** What about the GI50 (SF-268) of the same molecule?
**A.** Its GI50 is > 100 µM (inactive).

**Q.** And the GI50 (CCRF-CEM)?
**A.** The GI50 was > 100 µM (inactive).

**Q.** And the GI50 (SR)?
**A.** Its GI50 is > 100 µM (inactive).

**Q.** And the GI50 (NCI-H522)?
**A.** The GI50 was > 100 µM (inactive).

**Q.** What about the GI50 (TK-10) of the same molecule?
**A.** The GI50 was > 100 µM (inactive).

**Q.** What about the GI50 (SNB-75) of the same molecule?
**A.** The GI50 was > 100 µM (inactive).

**Q.** And the GI50 (T47D)?
**A.** Its GI50 is > 100 µM (inactive).

**Q.** What about the GI50 (PC-3) of the same molecule?
**A.** Its GI50 is > 100 µM (inactive).

**Q.** What about the GI50 (MDA-MB-231) of the same molecule?
**A.** The GI50 was > 100 µM (inactive).

**Q.** What about the GI50 (MDA-MB-435) of the same molecule?
**A.** Its GI50 is > 100 µM (inactive).

**Q.** What about the GI50 (K562) of the same molecule?
**A.** Its GI50 is > 100 µM (inactive).

**Q.** And the GI50 (BT-549)?
**A.** The GI50 was > 100 µM (inactive).

**Q.** What about the GI50 (HCT-116) of the same molecule?
**A.** The GI50 was > 100 µM (inactive).

**Q.** What about the GI50 (UACC-62) of the same molecule?
**A.** The GI50 was > 100 µM (inactive).

**Q.** And the GI50 (OVCAR-3)?
**A.** Its GI50 is > 100 µM (inactive).

**Q.** What about the GI50 (COLO 205) of the same molecule?
**A.** The GI50 was > 100 µM (inactive).

**Q.** What about the GI50 (SNB-19) of the same molecule?
**A.** Its GI50 is > 100 µM (inactive).

**Q.** And the GI50 (A549)?
**A.** Its GI50 is > 100 µM (inactive).

**Q.** What about the GI50 (A498) of the same molecule?
**A.** Its GI50 is > 100 µM (inactive).

**Q.** What about the GI50 (SK-OV-3) of the same molecule?
**A.** Its GI50 is > 100 µM (inactive).

**Q.** What about the GI50 (UACC-257) of the same molecule?
**A.** The GI50 was > 100 µM (inactive).

**Q.** What about the GI50 (HOP-92) of the same molecule?
**A.** The GI50 was > 100 µM (inactive).

**Q.** And the GI50 (HT-29)?
**A.** The GI50 was > 100 µM (inactive).

**Q.** What about the GI50 (NCI-H226) of the same molecule?
**A.** The GI50 was > 100 µM (inactive).

**Q.** What about the GI50 (MOLT-4) of the same molecule?
**A.** The GI50 was > 100 µM (inactive).

**Q.** And the GI50 (LOX IMVI)?
**A.** The GI50 was > 100 µM (inactive).

**Q.** And the GI50 (SF-539)?
**A.** The GI50 was > 100 µM (inactive).

**Q.** And the GI50 (NCI-H460)?
**A.** Its GI50 is > 100 µM (inactive).

**Q.** And the GI50 (HCC 2998)?
**A.** The GI50 was > 100 µM (inactive).

**Q.** What about the GI50 (OVCAR-8) of the same molecule?
**A.** The GI50 was > 100 µM (inactive).

**Q.** And the GI50 (CAKI-1)?
**A.** Its GI50 is > 100 µM (inactive).

**Q.** And the GI50 (IGROV-1)?
**A.** Its GI50 is > 100 µM (inactive).

**Q.** What about the GI50 (NCI-H23) of the same molecule?
**A.** The GI50 was > 100 µM (inactive).

**Q.** And the GI50 (RPMI-8226)?
**A.** The GI50 was > 100 µM (inactive).

**Q.** What about the GI50 (EKVX) of the same molecule?
**A.** Its GI50 is > 100 µM (inactive).

**Q.** What about the GI50 (UO-31) of the same molecule?
**A.** The GI50 was > 100 µM (inactive).

**Q.** And the GI50 (Malme-3M)?
**A.** Its GI50 is > 100 µM (inactive).

**Q.** What about the GI50 (MCF7) of the same molecule?
**A.** Its GI50 is > 100 µM (inactive).

**Q.** And the GI50 (M14)?
**A.** The GI50 was > 100 µM (inactive).

**Q.** And the GI50 (MDA-N)?
**A.** Its GI50 is > 100 µM (inactive).

**Q.** And the GI50 (SN12C)?
**A.** The GI50 was > 100 µM (inactive).

**Q.** And the GI50 (SK-MEL-5)?
**A.** The GI50 was > 100 µM (inactive).

**Q.** And the GI50 (KM12)?
**A.** Its GI50 is > 100 µM (inactive).

**Q.** And the GI50 (OVCAR-5)?
**A.** The GI50 was > 100 µM (inactive).

**Q.** What about the GI50 (ACHN) of the same molecule?
**A.** Its GI50 is > 100 µM (inactive).
